Like-named read-outs stand apart in the source and are kept apart here.
How the values were obtained:
Type in all cases: in vivo
Phytophthora infestans = conditions: for Test D disease control rating (100 = 100% disease control, 0 = no disease control): tomato seedlings sprayed to run-off, inoculated the following day, rating relative to controls, unmarked compounds (standard test rate); for Test D disease control rating: tomato late blight
Botrytis cinerea = assay: Test E: gray mold, preventive spray on cucumber seedlings; conditions: for Test E disease control rating (100 = 100% disease control, 0 = no disease control): cucumber seedlings sprayed to run-off, inoculated the following day, rating relative to controls, unmarked compounds (standard test rate); for Test E disease control rating: gray mold on cucumber
In short: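 Compounds in 3% acetone were suspended with 250 ppm Trem 014 surfactant and sprayed to run-off on cucumber seedlings. B. cinerea spores were inoculated next day, then 48 h saturated humidity at 20° C and 5 days at 20° C. Disease control rated 0–100% versus controls.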

[1] = test system: Eiysiphe graminis f. sp. tritici; assay: Test A: wheat powdery mildew, preventive spray on wheat seedlings; conditions: for Test A disease control rating (100 = 100% disease control, 0 = no disease control): wheat seedlings sprayed to run-off, inoculated the following day, rating relative to controls, unmarked compounds (standard test rate); for Test A disease control rating: wheat powdery mildew
In short: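 Compounds (3% acetone, 250 ppm Trem 014) sprayed to run-off on wheat seedlings, inoculated next day with spore dust. Incubated 7 days at 20° C before disease rating, 0–100% control relative to untreated controls.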

Pyricularia oryzae = conditions: for Test C disease control rating (100 = 100% disease control, 0 = no disease control): rice seedlings sprayed to run-off, inoculated the following day, rating relative to controls, unmarked compounds (standard test rate); for Test C disease control rating: rice blast
Puccinia recondita = assay: Test B: wheat leaf rust, preventive spray on wheat seedlings; conditions: for Test B disease control rating (100 = 100% disease control, 0 = no disease control): wheat seedlings sprayed to run-off, inoculated the following day, rating relative to controls, unmarked compounds (standard test rate); for Test B disease control rating: wheat leaf rust
In short: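 Wheat seedlings were sprayed to run-off with compound (3% acetone, 250 ppm Trem 014), then inoculated with P. recondita spores the next day. They were held 24 h saturated at 20 °C, then 6 days at 20 °C. Ratings are 0–100% disease control versus controls.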

[2] = 100 = 100% disease control, 0 = no control, unmarked entries (standard test concentration)
[3] = 100 = 100% disease control, 0 = no control relative to controls, unmarked entries (standard test concentration)

For C=CCc1cccc(C#N)c1OCC(C)NC(=O)C1(CC)C(C)C1(Cl)Cl (mixture of isomers) [compound 254], the “Test D disease control rating (100 = 100% disease control, 0 = no disease control)” value (Phytophthora infestans) was 0%, the “Test E disease control rating (100 = 100% disease control, 0 = no disease control)” value (Botrytis cinerea) was 0% and the “Test A disease control rating (100 = 100% disease control, 0 = no disease control)” value [1] was 0%. The “Test C disease control rating (100 = 100% disease control, 0 = no disease control)” value (Pyricularia oryzae) was 53% and the “Test B disease control rating (100 = 100% disease control, 0 = no disease control)” value (Puccinia recondita) was 0%.

For Cc1c(Br)cc(C#N)n1OCC(C)NC(=O)C(C#N)C(C)C(C)(C)C (mixture of isomers) [compound 70], the “Test D disease control rating” value (Phytophthora infestans; [2]) was 13%, the “Test E disease control rating” value (Botrytis cinerea; [2]) was 0% and the “Test A disease control rating” value [1, 3] was 63%. The “Test C disease control rating” value (Pyricularia oryzae; [2]) was 0% and the “Test B disease control rating” value (Puccinia recondita; [2]) was 0%.

For Cc1ccc(OC[C@@H](C)NC(=O)C(C#N)C(C)(C)C)c(Cl)c1 (single isomer, unassigned) [14a], the “Test D disease control rating” value (Phytophthora infestans; [2]) was 45%, the “Test E disease control rating” value (Botrytis cinerea; [2]) was 58% and the “Test A disease control rating” value [1, 3] was 0%. For the same molecule, the “Test C disease control rating” value (Pyricularia oryzae; [2]) was 94% and the “Test B disease control rating” value (Puccinia recondita; [2]) was 0%.

For CCc1ccccc1OCC(C)NC(=O)C1(CC)C(C)C1(Cl)Cl (stereo not shown) [97b], the “Test D disease control rating” value (Phytophthora infestans; tested at 40 ppm) was 0%, the “Test E disease control rating” value (Botrytis cinerea; tested at 40 ppm) was 0% and the “Test A disease control rating” value ([1]; tested at 40 ppm) was 71%. The “Test C disease control rating” value (Pyricularia oryzae; tested at 40 ppm) was 53% and the “Test B disease control rating” value (Puccinia recondita; tested at 40 ppm) was 0%.

In the case of C=CCc1ccccc1OCC(C)NC(=O)C1(CC)C(C)C1(Cl)Cl (stereo not shown) [101b], the “Test D disease control rating” value (Phytophthora infestans; tested at 40 ppm) is reported as 0%, the “Test E disease control rating” value (Botrytis cinerea; tested at 40 ppm) is reported as 0% and the “Test A disease control rating” value ([1]; tested at 40 ppm) is reported as 0%. The “Test C disease control rating” value (Pyricularia oryzae; tested at 40 ppm) was 0% and the “Test B disease control rating” value (Puccinia recondita; tested at 40 ppm) was 0%.

CCC1(C(=O)NCCCn2c(Cl)cc(Cl)c2Cl)C(C)C1(Cl)Cl (stereo not shown) [compound 148] was tested, and the “Test D disease control rating” value (Phytophthora infestans; [2]) was 0%, the “Test E disease control rating” value (Botrytis cinerea; [2]) was 0% and the “Test A disease control rating” value [1, 3] was 0%. For the same molecule, the “Test C disease control rating” value (Pyricularia oryzae; [2]) was 74% and the “Test B disease control rating” value (Puccinia recondita; [2]) was 0%.

In the case of CCC(C#N)C(=O)N[C@H](C)[C@H](Oc1ccccc1C#N)c1ccccc1 (stereo partly shown) [compound 304], the “Test D disease control rating (100 = 100% disease control, 0 = no disease control)” value (Phytophthora infestans) is reported as 0%, the “Test E disease control rating (100 = 100% disease control, 0 = no disease control)” value (Botrytis cinerea) is reported as 0% and the “Test A disease control rating (100 = 100% disease control, 0 = no disease control)” value [1] is reported as 0%. The “Test C disease control rating (100 = 100% disease control, 0 = no disease control)” value (Pyricularia oryzae) was 97% and the “Test B disease control rating (100 = 100% disease control, 0 = no disease control)” value (Puccinia recondita) was 0%.

For CCC1(C(=O)NC(C)COc2cc(Cl)cc(Cl)c2Cl)C(C)C1(Cl)Cl (stereo not shown) [compound 116], the “Test D disease control rating” value (Phytophthora infestans; tested at 40 ppm) was 0%, the “Test E disease control rating” value (Botrytis cinerea; tested at 40 ppm) was 0% and the “Test A disease control rating” value ([1]; tested at 40 ppm) was 21%. For the same molecule, the “Test C disease control rating” value (Pyricularia oryzae; tested at 40 ppm) was 0% and the “Test B disease control rating” value (Puccinia recondita; tested at 40 ppm) was 0%.

CCC1(C(=O)NC(C)COc2ccc(Cl)cc2)C(C)C1(Cl)Cl (mixture of isomers) [83b] was tested, and the “Test D disease control rating” value (Phytophthora infestans; tested at 40 ppm) was 0%, the “Test E disease control rating” value (Botrytis cinerea; tested at 40 ppm) was 0% and the “Test A disease control rating” value ([1]; tested at 40 ppm) was 52%. The “Test C disease control rating” value (Pyricularia oryzae; tested at 40 ppm) was 53% and the “Test B disease control rating” value (Puccinia recondita; tested at 40 ppm) was 0%.

C[C@H](COc1cccc(Cl)c1Cl)NC(=O)C(C#N)C(C)(C)C (single isomer, unassigned) [31b] was tested, and the “Test D disease control rating” value (Phytophthora infestans; [2]) was 0%, the “Test E disease control rating” value (Botrytis cinerea; [2]) was 0% and the “Test A disease control rating” value [1, 3] was 0%. For the same molecule, the “Test C disease control rating” value (Pyricularia oryzae; [2]) was 94% and the “Test B disease control rating” value (Puccinia recondita; [2]) was 0%.

For C#Cc1ccccc1OCC(C)NC(=O)C(C#N)C(C)(C)C (mixture of isomers) [compound 216], the “Test D disease control rating (100 = 100% disease control, 0 = no disease control)” value (Phytophthora infestans) was 9%, the “Test E disease control rating (100 = 100% disease control, 0 = no disease control)” value (Botrytis cinerea) was 45% and the “Test A disease control rating (100 = 100% disease control, 0 = no disease control)” value [1] was 0%. For the same molecule, the “Test C disease control rating (100 = 100% disease control, 0 = no disease control)” value (Pyricularia oryzae) was 99% and the “Test B disease control rating (100 = 100% disease control, 0 = no disease control)” value (Puccinia recondita) was 0%.

In the case of C#CC(C)(C)C(C#N)C(=O)NC(C)COc1cc(Cl)ccc1Cl (mixture of isomers) [compound 212], the “Test D disease control rating” value (Phytophthora infestans; [2]) is reported as 23%, the “Test E disease control rating” value (Botrytis cinerea; [2]) is reported as 0% and the “Test A disease control rating” value [1, 3] is reported as 0%. For the same molecule, the “Test C disease control rating” value (Pyricularia oryzae; [2]) was 100% and the “Test B disease control rating” value (Puccinia recondita; [2]) was 0%.

For CCC1(C(=O)NC(C)COc2c(Cl)cc(Cl)cc2Cl)C(C)C1(Cl)Cl (stereo not shown) [compound 118], the “Test D disease control rating” value (Phytophthora infestans; tested at 40 ppm) was 0%, the “Test E disease control rating” value (Botrytis cinerea; tested at 40 ppm) was 0% and the “Test A disease control rating” value ([1]; tested at 40 ppm) was 83%. The “Test C disease control rating” value (Pyricularia oryzae; tested at 40 ppm) was 0% and the “Test B disease control rating” value (Puccinia recondita; tested at 40 ppm) was 0%.

With C[C@H](COc1ccc(F)c(F)c1F)NC(=O)C(C#N)C(C)(C)C (single isomer, unassigned) [190b] the “Test D disease control rating” value (Phytophthora infestans; [2]) was 0%, the “Test E disease control rating” value (Botrytis cinerea; [2]) was 0% and the “Test A disease control rating” value [1, 3] was 0%. For the same molecule, the “Test C disease control rating” value (Pyricularia oryzae; [2]) was 94% and the “Test B disease control rating” value (Puccinia recondita; [2]) was 0%.

Source: patent US6642392B1 (priority 1997, dated 2003)
